Measurements taken from US20210223229A1, “IMMUNE FUNCTION INSPECTION METHOD, CANCER PATIENT CATEGORIZATION METHOD, CANCER TREATMENT EFFICACY PREDICTION METHOD, AGENT FOR INCREASING INTRACELLULAR CALCIUM ION CONCENTRATION, AGENT FOR INCREASING SELECTIVE FUNCTION OF EFFECTOR MEMORY (EM) AND EFFECTOR (EFF) IN TUMOR TISSUE, AND METHOD FOR …” (NATIONAL UNIVERSITY CORPORATION OKAYAMA UNIVERSITY, priority 2016, published 2021).
“Also recorded” adds a separate entry of the source.

Experiments:
[1] = test system: OVA-expressing B16 melanoma cell strain MO5
Description: The four types of groups: an untreated group (C), and, 10 days after the tumor cell inoculation, sole use of aspirin, sole use of phenformin (Phen), combined use of aspirin and phenformin, each consisting of 5 mice, were prepared. Phenformin is a biguanide-based drug, like metformin. From Day 10 of the tumor cell inoculation, phenformin contained in a feed in an amount of 0.5% was given. Further, the feed was replaced by a normal feed every four days. Specifically, a phenformin-containing feed was given only on Day 10 to Day 14, and Day 18 to Day 22. A normal feed free of phenformin was given from Day 14 to Day 18, and Day 22 to Day 26. This administration method is based on the fact that there have been fatal cases by everyday administration of phenformin due to side effects.
In contrast, aspirin (600 μg/mL) was given by free water drinking, and the water drinking was continuously performed from Day 10.

[2] = test system: mouse CD8T cells; assay: Detection of intracellular calcium ion in mouse tumor-infiltrating and lymph node lymphocytes after metformin administration; assay type: in vivo, C57BL/6 mice; conditions: 5 mg/mL metformin free-water-drinking for 7 days
Description: 2×10^5 MO-5 (OVA-expressing B16 melanoma cell strain) was intradermally inoculated to C57BL/6 mice; 7 days after the transplantation, free-water-drinking oral administration of 5 mg/mL metformin was started. Seven days after the administration (14 days after the transplantation), the lymph node (LN) and the tumor tissue (Tumor) were excised, and the tumor-infiltrating lymphocytes and lymphocytes of the lymph node were collected. After the cells were washed with FCS(−)RPMI, the cells were stained using antimouse CD3 antibody BV510, antimouse CD8 antibody APC-Cy7, 1 Fluo4, and 1 Fura Red for 30 minutes at 37° C. After the staining, the cells were washed with FCS(−)RPMI warmed at 37° C., followed by measurement of the background of intracellular calcium ions by a flow cytometer for 30 seconds. After the background measurement, the cells were immediately stimulated by 100 ng/ml PMA and 5 ionomycin, and the increase in calcium ions in the mouse CD8T cells by stimulation was measured (FIG. 1).

[3] = test system: tumor-infiltrating CD8T cells; assay: Memory phenotype of antigen-specific tumor-infiltrating CD8T cells and glucose (2-NBDG) uptake in each cell fraction; assay type: in vivo, C57BL/6 mice
Description: 2×10^5 MO-5 was intradermally inoculated to C57BL/6 mice; 7 days after the transplantation, free-water-drinking oral administration of 5 mg/mL metformin was started. Seven days after the administration (14 days after the transplantation), the tumor tissue was excised, and tumor-infiltrating lymphocytes were separated. After the separation, the lymphocytes were washed with 0.1% BSA/PBS, and staining was performed with antimouse CD8 antibody APC-Cy7, antimouse CD62L antibody BV421, antimouse CD44 antibody PerCP, antimouse KLRG1 antibody APC, and 400 μM 2-NBDG (2-[N-(7-nitrobenz-2-oxa-1,3-diazol-4-yl) amino]-2-deoxy-d-glucose) for 30 minutes at 4° C. After washing with 0.1% BSA/PBS, frequency and memory phenotype (CD44, CD62L, KLRG1) of antigen-specific tumor-infiltrating CD8T cells, and deoxyglucose (2-NBDG) uptake in each cell fraction were analyzed using a flow cytometer (FIG. 2).

[4] = test system: peripheral blood CD8T cells of cancer patients; assay: Multifunctionality of human CD8T cells under a low glucose condition (intracellular cytokine staining, FACS); assay type: cell-based; conditions: for number of CD8T cells producing three cytokines (IL-2, TNFα, IFNγ): 10 μM metformin 6 hours pre-culture, PMA/ionomycin stimulation
Description: FIG. 4: Analysis of multifunctionality of human CD8T-cells under a low glucose condition. Peripheral blood lymphocytes (PBMC) w/o 10 μM metformin were cultured for 6 hours. Subsequently, after washing, the cells were cultured for 12 hours at each glucose concentration. At the final 6 hours, the cells were cultured with PMA stimulation. After the culture, intracellular cytokine was stained with an antibody, followed by FACS analysis. It was confirmed that the multifunctionality of peripheral blood CD8T cells of cancer patients were recovered by being treated with metformin in advance, even in a low glucose environment, i.e., 1.0 mM.
Cryopreserved human PBMC obtained from cancer patients were thawed and cultured for 6 hours in the presence of FCS(−)RPMI 10 μM metformin. After the culture, the cells were separated and washed with FCS(−)Glc(−)RPMI. After the washing, the cells were subjected to stimulating culture for 6 hours by 50 ng/mL PMA and 2 ionomycin using RPMI containing 0.1, 1, 10 mM Glc in the presence of 1 monensin. The cells were separated and the cell-surface molecules were stained with antihuman CD8 antibody APC-Cy7, followed by a cell permeabilization treatment. The intracellular cytokines were stained with antihuman IL-2 antibody APC and antihuman TNFα antibody BV510, and […] IFNγ antibody FITC, followed by analysis using a flow cytometer (FIG. 4).

[5] = test system: glucose transporter (Glut1) in tumor-infiltrating CD8T cells; assay: Glucose transporter (Glut1) expression in tumor-infiltrating CD8T cells, MethA tumor; assay type: in vivo, BALB/c; conditions: metformin 5 mg/mL free-water-drinking from Day 7; Day 10 and Day 13; with and without PMA stimulation
Description: Tumor (MethA) 2×10^6 was intradermally injected to 8-week old BALB/c, and metformin (5 mg/mL) was continuously given by free-water-drinking from Day 7. Three and 6 days after the treatment (Day 10 and Day 13), the tumor-infiltrating T cells (TIL) were separated and stained with anti-CD8 antibody, and anti-glucose transporter (Glut1) antibody. Further, after stimulating culture in the presence of PMA/Ionomycin/Monencin for 6 hours, the cells were stained with anti-CD8 antibody and anti-glucose transporter (Glut1) antibody, followed by analysis using a flow cytometer.

[6] = test system: Glut1-positive tumor-infiltrating CD8T cells; assay: Multifunctionality of CD8T cells expressing Glut1, MethA tumor; assay type: in vivo, BALB/c
Description: Tumor (MethA) 2×10^6 was intradermally injected to 8-week old BALB/c, and metformin (5 mg/mL) was continuously given by free-water-drinking from Day 7. Three and 6 days after the treatment (Day 10 and Day 13), the tumor-infiltrating T cells (TIL) were separated. After stimulating culture in the presence of PMA/Ionomycin/Monencin for 6 hours, the cells were stained with anti-CD8 antibody, anti-glucose transporter (Glut1) antibody, and intracellular cytokines (IL-2/TNFα/IFNγ), followed by analysis using a flow cytometer. […] The proportion is increased by metformin administration. These facts indicate that, by confirming the Glut1 expression level in the tumor-infiltrating CD8T cells using a flow cytometer, it is possible to assume the immune status without performing a multifunctionality test. Further, by performing immunotherapy such as metformin administration, and confirming that the Glut1 expression level was increased in the CD8T cells by the therapy, it is possible to determine that the treatment had immune effects.

[7] = test system: glucose transporter (Glut1) in CD8TIL; assay: Change in Glut1 expression over time in CD8TIL, MethA tumor; assay type: in vivo, BALB/c; conditions: after 6-hour in-vitro culture; metformin 5 mg/mL from Day 7, 3 days of treatment
Description: Syngeneic tumor MethA (2×10^6) was intradermally injected to 8-week old BALB/c, and administration of metformin (5 mg/mL) and N-acetylcysteine (NAC, 10 mg/mL) was started from Day 7. Three days after the treatment, the tumor-infiltrating T cells (TIL) were separated, and cultured for 0, 1, 3 and 6 hours at 37° C. Therefore, the cells were stained with CD3, CD8, and glucose transporter (Glut1) antibodies, followed by analysis using a flow cytometer (FIG. 8).

[8] = test system: glucose transporter (Glut1) in CD8TIL; assay: Glut1 expression versus changes in glucose concentration in CD8TIL, MethA tumor; assay type: in vivo, BALB/c mice
Description: Syngeneic tumor (MethA) 2×10^6 was intradermally injected to 8-week old BALB/c mice, and administration of metformin (5 mg/mL) was started from Day 7. Three days after the treatment, the tumor-infiltrating T cells (TIL) were separated. After culture in the presence of a culture solution having a glucose concentration of 0, 0.1, 1.2, 6.1, 12.5, or 25 mM at 37° C. for 0, 1, 3, 6 hours, the cells were stained with CD3, CD8, and glucose transporter (Glut1) antibodies, followed by analysis using a flow cytometer (FIG. 9).

[9] = test system: human CD8T cells; assay: Calcium concentration in peripheral blood CD8T cells of cancer patients before and after metformin administration; assay type: in vivo; conditions: stage I, stage IIa and stage IV cancer patients; before vs after metformin
Description: In stage I, stage IIa, and stage IV cancer patients, changes in calcium concentration increase by PMA stimulation before and after metformin administration were measured. Human PBMC (human peripheral blood mononuclear cells) were collected before and after the metformin administration that was performed in accordance with the administration schedule shown in the figure, and subjected to stimulation with 100 ng/mL PMA and 5 ionomycin in the same manner as in Example 3, followed by measurement of calcium ion increase in human CD8T cells as a result of stimulation. Specifically, peripheral blood mononuclear cells (PBMC) were separated from peripheral blood by a gravity separation method, and 1×10^6 lymphocytes were incubated for 30 minutes at 37° C. in the presence of 1 μg/mL anti-human CD8 antibody and 1 μM Fluo4/FuraRed. The incubation was followed by washing with an AIM-V medium. After the washing, AIM-V was added and unstimulated (before stimulation) lymphocytes were collected by FACSCantoII for 20 minutes, thereby collecting baseline data. Thereafter, 100 ng/mL PMA and 2 μM ionomycin were added and stimulation was applied, followed by immediate collection by FACSCantoII, thereby obtaining data after stimulation. Consequently, waveforms according to the cytoplasmic calcium concentrations were detected.

[10] = 5 mg/mL metformin free-water-drinking for 7 days, MO-5 tumor

Row | Compound | side effects of everyday administration ([1]; everyday administration of phenformin) | water drinking behaviour ([1]; mouse, in vivo) | tumor growth inhibitory effects ([1]; phenformin 0.5% in feed Day 10-14 and Day 18-22, aspirin 600 μg/mL free water drinking from Day 10) | intracellular calcium concentration by PMA/ionomycin stimulation ([2]; CD8T cells of lymph node (LN), vs non-administration group) | intracellular calcium concentration by PMA/ionomycin stimulation ([2]; CD8T cells of tumor tissue (Tumor), MO-5 tumor) | glycolysis system (2-NBDG uptake) of central memory ([3]; 5 mg/mL metformin) | glycolysis system (2-NBDG uptake) of effector (eff) and effector memory (EM) ([3]; 5 mg/mL metformin) | number and proportion of central memory [3, 10] | numbers and proportions of effector (eff) and effector memory (EM) [3, 10] | number of CD8T cells producing three cytokines (IL-2, TNFα, IFNγ) ([4]; glucose concentration 0.1 mM) | number of CD8T cells producing three cytokines (IL-2, TNFα, IFNγ) ([4]; glucose concentration 1 mM) | multifunctionality of peripheral blood CD8T cells of cancer patients ([4]; low glucose environment 1.0 mM, treated with 10 μM metformin in advance) | Glut1-positive group in tumor-infiltrating CD8T cells [5] | proportion of Glut1-positive groups with multifunctionality ([6]; metformin 5 mg/mL free-water-drinking from Day 7, PMA/Ionomycin/Monencin 6 hours) | Glut1-positive and multifunctional cell groups per tumor unit ([6]; metformin administration group) | Glut-1 expression in CD8TIL [7] | up-regulation of GLUT-1 in CD8TIL ([8]; 6-hour in-vitro culture, CD8TIL separated from metformin-administered mice) | Glut-1 expression in CD8TIL ([8]; glucose concentration 0 mM) | Glut-1 expression, proportion of CD8TIL ([8]; glucose concentration of 0.1 mM, metformin-administered mice) | calcium concentration by PMA stimulation in human CD8T cells [9]
1 | [H]/N=C(/N)N/C(=N/[H])NCCc1ccccc1 [phenformin] | fatal cases | the mice stopped drinking water | strong tumor growth inhibitory effects | – | – | – | – | – | – | – | – | – | – | – | – | – | – | – | – | –
2 | CN(C)C(=N)N=C(N)N [metformin] | – | – | – | the degree of increase was greater | greatly increased | deactivates the glycolysis system | activates the glycolysis system | reduces | increased | no difference | significantly increased | recovered | conspicuous increase; also recorded: increased | increased | increased | very high level | significant up-regulation | does not occur | 14.3% | increase
